Target: T1, HGFR (His6-HGFR cytoplasmic domain) (Homo sapiens, UniProt P08581)
T1 construct: made in house; host or cells: Spodoptera frugiperda Sf9 insect cells (baculovirus, pFastBac-HT)
Assay: Inhibitory activity against HGFR tyrosine kinase activity (HTRF)
Format: biochemical
Conditions: biotin-poly(GT), ATP, 30° C. 10 min, read-out: IC50 (concentration necessary to inhibit HGFR kinase activity by 50%)
How it was run: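 Baculovirus/Sf9-expressed N-terminal His6-tagged HGFR cytoplasmic domain (from Lys974), Ni-NTA purified, phosphorylated biotin-poly(GT) in Hepes pH 7.4 with MgCl2/MnCl2. ATP added as 4 μM solution; 10 min at 30° C., stopped with EDTA. Phosphotyrosine product detected by HTRF.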

T1 sequence (P08581 956-1390 limits assumed): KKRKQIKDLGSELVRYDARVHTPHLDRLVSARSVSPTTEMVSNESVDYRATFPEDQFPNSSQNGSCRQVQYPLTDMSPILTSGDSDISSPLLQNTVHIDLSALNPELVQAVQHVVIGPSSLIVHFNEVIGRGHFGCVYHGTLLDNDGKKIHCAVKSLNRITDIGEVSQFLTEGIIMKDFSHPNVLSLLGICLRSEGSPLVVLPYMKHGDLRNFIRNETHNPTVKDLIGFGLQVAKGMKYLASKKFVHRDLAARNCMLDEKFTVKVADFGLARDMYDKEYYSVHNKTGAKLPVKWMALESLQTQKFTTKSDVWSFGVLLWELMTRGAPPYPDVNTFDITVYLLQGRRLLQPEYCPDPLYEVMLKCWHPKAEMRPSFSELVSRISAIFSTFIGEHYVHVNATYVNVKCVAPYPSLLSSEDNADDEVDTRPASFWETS

Compound | IC50 [µM]
CN(C)CCN1CCC(N(C)C(=O)Nc2cc(Oc3ccc(NC(=S)NC(=O)Cc4ccc(F)cc4)cc3F)ccn2)CC1 [Example 224, 1-[1-(2-Dimethylaminoethyl)piperidin-4-yl]-3-[4-(2-fluoro-4-{3-[2-(4-fluorophenyl)acetyl]thioureido}phenoxy)pyridin-2-yl]-1-methylurea] | 0.088
O=C(Cc1ccc(F)cc1)NC(=S)Nc1ccc(Oc2cc(NC(=O)N3CCC(CN4CCCC4)CC3)ncn2)c(F)c1 [Example 349, 4-(Pyrrolidin-1-ylmethyl)piperidine-1-carboxylic acid [6-(2-fluoro-4-{3-[2-(4-fluorophenyl)acetyl]thioureido}phenoxy)pyrimidin-4-yl]amide] | 0.087
CN(C(=O)Nc1cc(Oc2ccc(NC(=S)NC(=O)Cc3ccc(F)cc3)cc2F)ncn1)C1CCOCC1 [Example 288, 3-[6-(2-Fluoro-4-{3-[2-(4-fluorophenyl)acetyl]thioureido}phenoxy)pyrimidin-4-yl]-1-methyl-1-(tetrahydropyran-4-yl)urea] | 0.016
COc1ccccc1NC(=O)CC(=O)Nc1ccc(Oc2ccnc(NC(=O)N3CCCC3)c2)c(F)c1 [Example 60, N-(2-methoxyphenyl)-N′-(3-fluoro-4-{2-[(pyrrolidine-1-carbonyl)amino]pyridin-4-yloxy}phenyl)malonamide] | 0.049
O=C(CC(=O)Nc1ccc(Oc2ccnc(NC(=O)N3CCC3)c2)cc1Cl)Nc1ccc(F)cc1 [Example 64, N-(2-Chloro-4-{2-[(azetidine-1-carbonyl)amino]pyridin-4-yloxy}phenyl)-N′-(4-fluorophenyl)malonamide] | 0.059
CN1CC[C@H](N(C)C(=O)Nc2cc(Oc3ccc(NC(=S)NC(=O)Cc4ccc(F)cc4)cc3F)ncn2)C1 [Example 201, 3-[6-(2-Fluoro-4-{3-[2-(4-fluorophenyl)acetyl]thioureido}phenoxy)pyrimidin-4-yl]-1-methyl-1-[(3S)-1-methylpyrrolidin-3-yl]urea] | 0.05
CN1CCC(N(C)C(=O)Nc2cc(Oc3ccc(NC(=S)NC(=O)Cc4ccc(F)cc4)cc3F)ncn2)CC1 [Example 170, 3-[6-(2-Fluoro-4-{3-[2-(4-fluorophenyl)acetyl]thioureido}phenoxy)pyrimidin-4-yl]-1-methyl-1-(1-methylpiperidin-4-yl)urea] | 0.066
CN1CCN(C2CCN(C(=O)Nc3cc(Oc4ccc(NC(=S)NC(=O)Cc5ccc(F)cc5)cc4F)ncn3)CC2)CC1 [Example 192, 4-(2-Fluoro-4-{3-[2-(4-fluorophenyl)acetyl]thioureido}phenoxy)-6-{[4-(1-methylpiperazin-4-yl)piperidin-1-yl]carbonylamino}pyrimidine] | 0.04
CCN1CCC(N(C)C(=O)Nc2cc(Oc3ccc(NC(=S)NC(=O)Cc4ccc(F)cc4)cc3F)ncn2)CC1 [Example 285, 1-(1-Ethylpiperidin-4-yl)-3-[6-(2-fluoro-4-{3-[2-(4-fluorophenyl)acetyl]thioureido}phenoxy)pyrimidin-4-yl]-1-methylurea] | 0.051

The remaining molecules from weak to strong by IC50, led by results:

IC50 [µM] | Compound
0.13 | CN(C)CC1CCN(C(=O)Nc2cc(Oc3ccc(NC(=S)NC(=O)Cc4ccc(F)cc4)cc3)ccn2)CC1 [Example 188, 2-{[4-(Dimethylaminomethyl)piperidin-1-yl]carbonylamino}-4-(4-{3-[2-(4-fluorophenyl)acetyl]thioureido}phenoxy)pyridine]
0.094 | CN1CC(N2CCN(C(=O)Nc3cc(Oc4ccc(NC(=O)NC(=O)Cc5ccc(F)cc5)cc4F)ccn3)CC2)C1 [Example 383, 4-(1-Methylazetidin-3-yl)piperazine-1-carboxylic acid [4-(2-fluoro-4-{3-[2-(4-fluorophenyl)acetyl]ureido}phenoxy)pyridin-2-yl]amide]
0.083 | CN1CC(N2CCC(N(C)C(=O)Nc3cc(Oc4ccc(NC(=S)NC(=O)Cc5ccc(F)cc5)cc4F)ncn3)CC2)C1 [Example 391, 3-(6-{2-Fluoro-4-[3-(4-fluorophenyl)acetylthioureido]phenoxy}pyrimidin-4-yl)-1-methyl-1-[1-(1-methylazetidin-3-yl)piperidin-4-yl]urea]
0.064 | O=C(Cc1ccc(F)cc1)NC(=S)Nc1ccc(Oc2cc(NC(=O)N3CCC(N4CCC4)CC3)ncn2)c(F)c1 [Example 172, 4-(Azetidin-1-yl)piperidine-1-carboxylic acid [6-(2-fluoro-4-{3-[2-(4-fluorophenyl)acetyl]thioureido}phenoxy)pyrimidin-4-yl]amide]

From US20070270421A1, “Novel pyridine Derivative and Pyrimidine Derivative (1)” (priority 2004, published 2007)
